Values quoted from earlier work in patent publication US11040987B2 (TenNor Therapeutics Limited, priority 2019, dated 2021).

What was measured:
Pseudomonas aeruginosa = details: including carbapenem-resistant strains; cited from earlier work
Acinetobacter baumannii = details: including carbapenem-resistant strains; cited from earlier work

In the case of `CC(C)(O/N=C(\C(=O)N[C@@H]1C(=O)N2C(C(=O)[O-])=C(C[N+]3(CCNC(=O)c4ccc(O)c(O)c4Cl)CCCC3)CS[C@H]12)c1csc(N)n1)C(=O)O` [Cefiderocol], the “antibacterial activity against Pseudomonas aeruginosa” value (Pseudomonas aeruginosa) is given as “potent antibacterial activity” and the “antibacterial activity against Acinetobacter baumannii” value (Acinetobacter baumannii) is given as “potent antibacterial activity”.
